Here are results for 16 compounds from US9980945B2, “Benzoisoxazole-substituted compounds as MGLUR4 allosteric potentiators, compositions, and methods of treating neurological dysfunction” (Vanderbilt University, priority 2015, dated 2018).

What is called EC50 is the concentration needed to bring the measured effect to its halfway point.

Structures are written as SMILES. Where only a bound is given, the exact number is not on record here.

For the assay, the target named is mGluR4 (UniProt Q14833). As to the kind of experiment: mGluR4 potentiation assay (EC50 for potentiation at EC20 agonist; fluorometric plate reader, Ca2+ or thallium dye). Type of assay: cell-based. To be noted: potentiation of mGluR4; species of receptor not given. Here is the method: The disclosed compounds and compositions can be evaluated for their ability to act as a potentiator of metabotropic glutamate receptor activity, in particular mGluR4 activity, by any suitable known methodology known in the art. For example, Chinese Hamster Ovary (CHO) cells transacted with human mGluR4 or HEK cells co-transfected with rat mGluR4 and the G-protein regulated Inwardly Rectifying Potassium channel (GIRK) were plated in clear bottom assay plates for assay in a Hamamatsu FDSS Fluorometric Plate Reader. The cells were loaded with either a Ca2+-sensitive fluorescent dye or the thallium responsive dye and the plates were washed and placed into a suitable kinetic plate reader. For human mGluR4 assays, a fluorescence baseline was established for 3-5 seconds, the disclosed compounds were then added to the cells, and the response in cells was measured. Approximately two and a half minutes later, a concentration of mGluR4 orthosteric agonist (e.g. glutamate or L-AP4) eliciting approximately 20% (EC20) of the maximal agonist response was added to the cells, and the response was measured. Two minutes later, a concentration of mGluR4 agonist (e.g. glutamate or L-AP4) eliciting 80% (EC80) of the maximal agonist response was added to the cells, and the response was measured. For rat mGluR4/GIRK experiments, a baseline was established for approximately five seconds, disclosed compounds were added, and either an EC20 or EC80 concentration of agonist was added approximately two and one half minutes later. Potentiation of the agonist response of mGluR4 by the disclosed compounds was observed as an increase in response to the EC20 concentration of agonist in the presence of compound compared to the response to agonist in the absence of compound. Similarly, antagonism of the agonist response of mGluR4 by the disclosed compounds was observed as a decrease in response to the EC80 concentration of agonist in the presence of compound compared to the response to agonist in the absence of compound.
The above described assay operated in two modes. In the first mode, a range of concentrations of the disclosed compounds are added to cells, followed by a single fixed concentration of agonist. If the compound acts as a potentiator, an EC50 so value for potentiation and a maximum extent of potentiation by the compound at this concentration of agonist is determined by non-linear curve fitting. If the compound acts as a noncompetitive antagonist, an IC50 value is determined by non-linear curve fitting. In the second mode, several fixed concentrations of the disclosed compounds are added to various wells on a plate, followed by a range in concentrations of agonist for each concentration of disclosed compound. The EC50 values for the agonist at each concentration of compound are determined by non-linear curve fitting. A decrease in the EC50 value of the agonist with increasing concentrations of the sample compound (a leftward shift of the agonist concentration-response curve) is an indication of the degree of mGluR4 potentiation at a given concentration of the sample compound. A decrease in the maximal response of the agonist with increasing concentrations of the sample compounds, with or without a rightward shift in agonist potency, is an indication of the degree of noncompetitive antagonism at mGluR4. The second mode also indicates whether the sample compounds also affect the maximum response to mGluR4 to agonists.
For `CCC(CC)c1noc2cc(Nc3n[nH]c4nccnc34)ccc12` [Example 83, 3-(1-ethylpropyl)-N-(1H-pyrazolo[3,4-b]pyrazin-3-yl)-1,2-benzoxazol-6-amine], the EC50 was 0.0971 µM.

For the compound `CN(Cc1cccnc1)C(=O)Cc1noc2cc(Nc3n[nH]c4cccnc34)ccc12` [Example 157, N-methyl-2-[6-(1H-pyrazolo[4,3-b]pyridin-3-ylamino)-1,2-benzoxazol-3-yl]-N-(3-pyridylmethyl)acetamide], the half-maximal effective concentration (EC50) was found to be 1.75 µM.

Take `CC1CN(c2noc3cc(Nc4n[nH]c5cccnc45)ccc23)CC(C)O1` (stereo not shown) [Example 28, 3-(2,6-dimethylmorpholino)-N-(1H-pyrazolo[4,3-b]pyridin-3-yl)benzo[d]isoxazol-6-amine]: the EC50 was determined as 1.86 µM.

As for `CCCC(C)c1noc2cc(Nc3n[nH]c4ncccc34)ccc12` (stereo not shown) [Example 95, 3-(1-methylbutyl)-N-(1H-pyrazolo[3,4-b]pyridin-3-yl)-1,2-benzoxazol-6-amine], the EC50 worked out at 0.673 µM.

Take `Cc1noc2c(F)cc(Nc3n[nH]c4nccnc34)cc12` [Example 106, 7-fluoro-3-methyl-N-(1H-pyrazolo[3,4-b]pyrazin-3-yl)-1,2-benzoxazol-5-amine]: the half-maximal effective concentration (EC50) came out at 0.0231 µM.

On to `c1cnc2c(Nc3ccc4c(Cc5ccc6[nH]ncc6c5)noc4c3)n[nH]c2c1` [Example 33, 3-((1H-indazol-5-yl)methyl)-N-(1H-pyrazolo[4,3-b]pyridin-3-yl)benzo[d]isoxazol-6-amine], for which the 50% effective concentration (EC50) is 0.044 µM.

For the compound `CC(C)(C)Cc1noc2cc(Nc3n[nH]c4ncccc34)cc(F)c12` [Example 148, 3-(2,2-dimethylpropyl)-4-fluoro-N-(1H-pyrazolo[3,4-b]pyridin-3-yl)-1,2-benzoxazol-6-amine], the half-maximal effective concentration (EC50) is more than 30 µM.

With `CC(C)(C)Cc1noc2cc(Nc3n[nH]c4nccnc34)cc(F)c12` [Example 149, 3-(2,2-dimethylpropyl)-4-fluoro-N-(1H-pyrazolo[3,4-b]pyrazin-3-yl)-1,2-benzoxazol-6-amine], the concentration for a half-maximal effect (EC50) was more than 10 µM.

On to `CN(Cc1ccncc1)C(=O)Cc1noc2cc(Nc3n[nH]c4cccnc34)ccc12` [Example 160, N-methyl-2-[6-(1H-pyrazolo[4,3-b]pyridin-3-ylamino)-1,2-benzoxazol-3-yl]-N-(4-pyridylmethyl)acetamide], for which the concentration giving a half-maximal response (EC50) was 3.43 µM.

In the case of `Cc1noc2cc(Nc3n[nH]c4cccnc34)ccc12` [Example 1, 3-methyl-N-(1H-pyrazolo[4,3-b]pyridin-3-yl)benzo[d]isoxazol-6-amine], the concentration giving a half-maximal response (EC50) worked out at 1.86 µM.

For the compound `CN(C(=O)Cc1noc2cc(Nc3n[nH]c4cccnc34)ccc12)c1cccnc1` [Example 158, N-methyl-2-[6-(1H-pyrazolo[4,3-b]pyridin-3-ylamino)-1,2-benzoxazol-3-yl]-N-(3-pyridyl)acetamide], the half-maximal effective concentration (EC50) is 1.17 µM.

Regarding `O=C(NC1CCC1)c1noc2cc(Nc3n[nH]c4cccnc34)ccc12` [Example 53, N-cyclobutyl-6-(1H-pyrazolo[4,3-b]pyridin-3-ylamino)-1,2-benzoxazole-3-carboxamide], the EC50 came out at 0.672 µM.

For the compound `CCc1noc2cc(Nc3n[nH]c4cccnc34)ccc12` [Example 16, 3-ethyl-N-(1H-pyrazolo[4,3-b]pyridin-3-yl)benzo[d]isoxazol-6-amine], the concentration giving a half-maximal response (EC50) was found to be 1.3 µM.

As for `O=C(NC1CC(F)(F)C1)c1noc2cc(Nc3n[nH]c4cccnc34)ccc12` [Example 29, 6-((1H-pyrazolo[4,3-b]pyridin-3-yl)amino)-N-(3,3-difluorocyclobutyl)benzo[d]isoxazole-3-carboxamide], the EC50 is 0.249 µM.

Turning to `CCC(CC)c1noc2cc(Nc3n[nH]c4ncccc34)ccc12` [Example 84, 3-(1-ethylpropyl)-N-(1H-pyrazolo[3,4-b]pyridin-3-yl)-1,2-benzoxazol-6-amine], the EC50 worked out at 0.522 µM.

Regarding `CC(C)Cc1noc2cc(Nc3n[nH]c4cccnc34)ccc12` [Example 12, 3-isobutyl-N-(1H-pyrazolo[4,3-b]pyridin-3-yl)benzo[d]isoxazol-6-amine], the half-maximal effective concentration (EC50) was determined as 0.826 µM.
